Assay results as given in ChEMBL document CHEMBL1201861, “Genomics of Drug Sensitity in Cancer screening data, Wellcome Trust Sanger Institute”.
pIC50: −log10 of the molar value.

Legend:
Test in all cases: cells
Details in all cases: Homo sapiens
UACC-62 = format: functional, cell-based;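 further: growth inhibition of human UACC-62 cells, read out by a cell viability assay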
Description: SANGER: Inhibition of human UACC-62 cell growth in a cell viability assay.

ME-180 = format: functional, cell-based;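 further: cell viability assay measuring growth inhibition of ME-180 cells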
Description: SANGER: Inhibition of human ME-180 cell growth in a cell viability assay.

G-401 = format: functional, cell-based
Description: SANGER: Inhibition of human G-401 cell growth in a cell viability assay.

UMUC3 = format: functional, cell-based;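 further: growth inhibition of human UM-UC-3 cells, read out with a cell viability assay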
Description: SANGER: Inhibition of human UM-UC-3 cell growth in a cell viability assay.

DU-145 = format: functional, cell-based
Description: SANGER: Inhibition of human DU-145 cell growth in a cell viability assay.

YKG-1 = format: functional, cell-based;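 further: cell growth inhibition, read out with a viability assay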
Description: SANGER: Inhibition of human YKG-1 cell growth in a cell viability assay.

HCT-116 = format: functional, cell-based
Description: SANGER: Inhibition of human HCT-116 cell growth in a cell viability assay.

SCC-9 = format: functional, cell-based;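 further: Read-out is a cell viability assay, with values giving inhibition of cell growth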
Description: SANGER: Inhibition of human SCC-9 cell growth in a cell viability assay.

HOP-92 = format: functional, cell-based;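 further: cell viability readout, with IC50 reflecting inhibition of HOP-92 cell growth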
Description: SANGER: Inhibition of human HOP-92 cell growth in a cell viability assay.

SW626 = format: functional, cell-based;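 further: growth inhibition of SW626 cells, measured with a cell viability assay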
Description: SANGER: Inhibition of human SW626 cell growth in a cell viability assay.

MEL-HO = format: functional, cell-based
Description: SANGER: Inhibition of human MEL-HO cell growth in a cell viability assay.

KYSE-410 = format: functional, cell-based;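 further: growth inhibition of KYSE-410 cells, measured through a cell viability readout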
Description: SANGER: Inhibition of human KYSE-410 cell growth in a cell viability assay.

SF-295 = format: functional, cell-based;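 further: growth inhibition of SF-295 cells, read out with a cell viability assay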
Description: SANGER: Inhibition of human SF295 cell growth in a cell viability assay.

GCT = format: functional, cell-based;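 further: GCT cell line proliferation inhibition, read out with a cell viability assay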
Description: SANGER: Inhibition of human GCT cell growth in a cell viability assay.

HuO-3N1 = format: functional, cell-based;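 further: cell viability readout used to measure how strongly compounds suppress proliferation of human HuO-3N1 cells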
Description: SANGER: Inhibition of human HuO-3N1 cell growth in a cell viability assay.

HCT-15 = format: functional, cell-based;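 further: cell viability readout, IC50 reflecting suppression of HCT-15 cell growth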
Description: SANGER: Inhibition of human HCT-15 cell growth in a cell viability assay.

MKN-1 = format: functional, cell-based;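 further: growth inhibition of human MKN1 cells, read out by a cell viability measurement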
Description: SANGER: Inhibition of human MKN1 cell growth in a cell viability assay.

PANC-08-13 = format: functional, cell-based;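 further: cell growth inhibition, measured with a cell viability assay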
Description: SANGER: Inhibition of human PANC-08-13 cell growth in a cell viability assay.

MDA-MB-361 = format: functional, cell-based
SK-MEL-28 = format: functional, cell-based;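 further: growth inhibition of human SK-MEL-28 cells, read out with a cell viability assay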
Description: SANGER: Inhibition of human SK-MEL-28 cell growth in a cell viability assay.

SW780 = format: functional, cell-based;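 further: growth inhibition of the cells, read out with a cell viability assay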
Description: SANGER: Inhibition of human SW780 cell growth in a cell viability assay.

RO82-W-1 = format: functional, cell-based;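 further: growth inhibition of human RO82-W-1 cells, measured with a cell viability assay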
Description: SANGER: Inhibition of human RO82-W-1 cell growth in a cell viability assay.

U2OS = format: functional, cell-based, U-2-OS;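 further: growth inhibition of human U-2-OS cells, determined with a cell viability assay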
Description: SANGER: Inhibition of human U-2-OS cell growth in a cell viability assay.

NCI-H2342 = format: functional, cell-based;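 further: growth inhibition of the cancer cell line, determined with a cell viability assay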
Description: SANGER: Inhibition of human NCI-H2342 cell growth in a cell viability assay.

SW837 = format: functional, cell-based;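 further: growth inhibition of SW837 cells, determined with a cell viability assay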
Description: SANGER: Inhibition of human SW837 cell growth in a cell viability assay.

H4 = format: functional, cell-based
Description: SANGER: Inhibition of human H4 cell growth in a cell viability assay.

GMS-10 = format: functional, cell-based;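 further: growth inhibition of GMS-10 cells, read out as cell viability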
Description: SANGER: Inhibition of human GMS-10 cell growth in a cell viability assay.

SW1088 = format: functional, cell-based;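 further: growth inhibition of human SW1088 cells, read out by a cell viability assay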
Description: SANGER: Inhibition of human SW1088 cell growth in a cell viability assay.

NCI-H810 = format: functional, cell-based;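 further: IC50 reflects inhibition of cancer cell line growth, read out with a cell viability assay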
Description: SANGER: Inhibition of human NCI-H810 cell growth in a cell viability assay.

RT-112 = format: functional, cell-based
Description: SANGER: Inhibition of human RT-112 cell growth in a cell viability assay.

HCC1419 = format: functional, cell-based;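 further: growth inhibition of human HCC1419 cells, read out as cell viability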
Description: SANGER: Inhibition of human HCC1419 cell growth in a cell viability assay.

NCI-H2052 = format: functional, cell-based;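 further: growth inhibition of NCI-H2052 cells, read out with a cell viability assay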
Description: SANGER: Inhibition of human NCI-H2052 cell growth in a cell viability assay.

EFO-27 = format: functional, cell-based;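 further: growth inhibition of EFO-27 cells, read out with a cell viability assay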
Description: SANGER: Inhibition of human EFO-27 cell growth in a cell viability assay.

SW756 = format: functional, cell-based;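 further: growth inhibition of human SW756 cells, read out with a cell viability assay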
Description: SANGER: Inhibition of human SW756 cell growth in a cell viability assay.

NCI-H292 = format: functional, cell-based;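 further: growth inhibition of NCI-H292 cells, read out with a cell viability assay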
Description: SANGER: Inhibition of human NCI-H292 cell growth in a cell viability assay.

SW48 = format: functional, cell-based;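 further: growth inhibition of SW48 cells, read out with a cell viability assay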
Description: SANGER: Inhibition of human SW48 cell growth in a cell viability assay.

CAL-27 = format: functional, cell-based;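 further: Viability-based readout, IC50 reflecting inhibition of CAL-27 cell growth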
Description: SANGER: Inhibition of human CAL-27 cell growth in a cell viability assay.

NCI-H28 = format: functional, cell-based;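 further: growth inhibition of human NCI-H28 cells, read out as cell viability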
Description: SANGER: Inhibition of human NCI-H28 cell growth in a cell viability assay.

8505C = format: functional, cell-based
Description: SANGER: Inhibition of human 8505C cell growth in a cell viability assay.

HT-3 = format: functional, cell-based;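 further: growth inhibition measured with a cell viability readout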
Description: SANGER: Inhibition of human HT-3 cell growth in a cell viability assay.

BPH-1 = format: functional, cell-based;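 further: cell viability assay measuring growth inhibition of human BPH-1 cells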
Description: SANGER: Inhibition of human BPH-1 cell growth in a cell viability assay.

COR-L23 = format: functional, cell-based;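 further: cell viability assay measuring how strongly compounds suppress growth of COR-L23 cells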
Description: SANGER: Inhibition of human COR-L23 cell growth in a cell viability assay.

EFM-19 = format: functional, cell-based;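 further: growth inhibition of human EFM-19 cells, measured in a cell viability assay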
Description: SANGER: Inhibition of human EFM-19 cell growth in a cell viability assay.

A253 cell line = format: functional, cell-based;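 further: growth inhibition of A253 cells, read out with a cell viability assay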
Description: SANGER: Inhibition of human A253 cell growth in a cell viability assay.

ChaGo-K-1 = format: functional, cell-based;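 further: growth inhibition of ChaGo-K-1 cells, read out with a cell viability assay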
Description: SANGER: Inhibition of human ChaGo-K-1 cell growth in a cell viability assay.

SK-MEL3 = format: functional, cell-based, SK-MEL-3;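 further: growth inhibition of human SK-MEL-3 cells, read out with a cell viability assay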
Description: SANGER: Inhibition of human SK-MEL-3 cell growth in a cell viability assay.

`CC[C@@]1(O)C(=O)OCc2c1cc1n(c2=O)Cc2cc3ccccc3nc2-1` [CAMPTOTHECIN] was tested. Which pIC50 (UACC-62) did it give?
The pIC50 was 7.51.

And the pIC50 (ME-180)?
Its pIC50 is 8.57.

What about the pIC50 (G-401) of the same compound?
The pIC50 was 7.72.

What about the pIC50 (UMUC3) of the same compound?
The pIC50 was 8.51.

And the pIC50 (DU-145)?
The pIC50 was < 7.00.

What about the pIC50 (YKG-1) of the same compound?
The pIC50 was 8.26.

What about the pIC50 (HCT-116) of the same compound?
The pIC50 was 8.30.

What about the pIC50 (SCC-9) of the same compound?
The pIC50 was 7.48.

And the pIC50 (HOP-92)?
Its pIC50 is 8.06.

And the pIC50 (SW626)?
Its pIC50 is 7.11.

What about the pIC50 (MEL-HO) of the same compound?
The pIC50 was 8.12.

And the pIC50 (KYSE-410)?
The pIC50 was 7.11.

And the pIC50 (SF-295)?
Its pIC50 is 8.10.

What about the pIC50 (GCT) of the same compound?
The pIC50 was 8.30.

And the pIC50 (HuO-3N1)?
The pIC50 was 7.90.

And the pIC50 (HCT-15)?
Its pIC50 is < 7.00.

And the pIC50 (MKN-1)?
Its pIC50 is 7.42.

What about the pIC50 (PANC-08-13) of the same compound?
Its pIC50 is 7.35.

And the pIC50 (MDA-MB-361)?
Its pIC50 is 7.46.

What about the pIC50 (SK-MEL-28) of the same compound?
Its pIC50 is 7.77.

What about the pIC50 (SW780) of the same compound?
The pIC50 was 7.59.

What about the pIC50 (RO82-W-1) of the same compound?
The pIC50 was 7.83.

And the pIC50 (U2OS)?
The pIC50 was 7.87.

What about the pIC50 (NCI-H2342) of the same compound?
Its pIC50 is < 7.00.

What about the pIC50 (SW837) of the same compound?
The pIC50 was 7.31.

What about the pIC50 (H4) of the same compound?
The pIC50 was 9.21.

And the pIC50 (GMS-10)?
Its pIC50 is 8.14.

And the pIC50 (SW1088)?
Its pIC50 is 7.56.

And the pIC50 (NCI-H810)?
The pIC50 was 7.30.

And the pIC50 (RT-112)?
The pIC50 was 7.83.

And the pIC50 (HCC1419)?
The pIC50 was < 7.00.

And the pIC50 (NCI-H2052)?
The pIC50 was 7.55.

And the pIC50 (EFO-27)?
Its pIC50 is 7.09.

What about the pIC50 (SW756) of the same compound?
The pIC50 was 8.38.

And the pIC50 (NCI-H292)?
Its pIC50 is 8.65.

And the pIC50 (SW48)?
The pIC50 was 8.52.

And the pIC50 (CAL-27)?
The pIC50 was 8.70.

And the pIC50 (NCI-H28)?
Its pIC50 is 7.41.

And the pIC50 (8505C)?
The pIC50 was 8.48.

And the pIC50 (HT-3)?
Its pIC50 is 9.67.

What about the pIC50 (BPH-1) of the same compound?
The pIC50 was 8.68.

What about the pIC50 (COR-L23) of the same compound?
The pIC50 was 8.16.

How did the pIC50 (UACC-62) turn out when `Cn1c(=O)n(-c2ccc(C(C)(C)C#N)cc2)c2c3cc(-c4cnc5ccccc5c4)ccc3ncc21` [DACTOLISIB] was run?
Its pIC50 is 6.77.

And the pIC50 (ME-180)?
The pIC50 was 7.65.

What about the pIC50 (G-401) of the same compound?
The pIC50 was 7.39.

And the pIC50 (UMUC3)?
Its pIC50 is > 8.11.

What about the pIC50 (DU-145) of the same compound?
The pIC50 was < 5.70.

And the pIC50 (YKG-1)?
Its pIC50 is 7.28.

What about the pIC50 (HCT-116) of the same compound?
Its pIC50 is 6.88.

And the pIC50 (EFM-19)?
The pIC50 was 7.17.

And the pIC50 (SCC-9)?
Its pIC50 is 6.53.

What about the pIC50 (A253 cell line) of the same compound?
Its pIC50 is 7.08.

And the pIC50 (HOP-92)?
The pIC50 was 7.58.

And the pIC50 (SW626)?
Its pIC50 is 6.75.

And the pIC50 (MEL-HO)?
Its pIC50 is 7.62.

What about the pIC50 (KYSE-410) of the same compound?
Its pIC50 is 7.23.

And the pIC50 (SF-295)?
Its pIC50 is 7.72.

And the pIC50 (GCT)?
Its pIC50 is 7.86.

And the pIC50 (ChaGo-K-1)?
The pIC50 was 6.48.

And the pIC50 (HuO-3N1)?
The pIC50 was 7.17.

And the pIC50 (MKN-1)?
Its pIC50 is 8.55.

And the pIC50 (PANC-08-13)?
The pIC50 was 7.24.

And the pIC50 (MDA-MB-361)?
The pIC50 was 7.21.

What about the pIC50 (SK-MEL-28) of the same compound?
The pIC50 was 6.95.

What about the pIC50 (SW780) of the same compound?
Its pIC50 is 7.64.

And the pIC50 (RO82-W-1)?
Its pIC50 is 7.22.

And the pIC50 (U2OS)?
The pIC50 was 7.53.

And the pIC50 (NCI-H2342)?
The pIC50 was 6.23.

And the pIC50 (SW837)?
The pIC50 was 5.88.

What about the pIC50 (H4) of the same compound?
The pIC50 was 7.90.

What about the pIC50 (GMS-10) of the same compound?
The pIC50 was 6.76.

What about the pIC50 (SW1088) of the same compound?
The pIC50 was 7.55.

And the pIC50 (NCI-H810)?
Its pIC50 is 6.56.

What about the pIC50 (RT-112) of the same compound?
The pIC50 was 7.71.

What about the pIC50 (HCC1419) of the same compound?
The pIC50 was 7.41.

And the pIC50 (NCI-H2052)?
Its pIC50 is 6.76.

What about the pIC50 (EFO-27) of the same compound?
The pIC50 was 7.61.

And the pIC50 (SW756)?
Its pIC50 is 6.26.

What about the pIC50 (NCI-H292) of the same compound?
Its pIC50 is 7.57.

What about the pIC50 (SK-MEL3) of the same compound?
The pIC50 was 6.83.

What about the pIC50 (SW48) of the same compound?
The pIC50 was 6.70.

What about the pIC50 (CAL-27) of the same compound?
The pIC50 was 6.66.

And the pIC50 (NCI-H28)?
Its pIC50 is 7.46.

And the pIC50 (8505C)?
Its pIC50 is 7.43.

What about the pIC50 (HT-3) of the same compound?
Its pIC50 is 6.42.

And the pIC50 (BPH-1)?
The pIC50 was 8.32.

What about the pIC50 (COR-L23) of the same compound?
Its pIC50 is 7.31.

With `CC(=O)c1c(C)c2cnc(Nc3ccc(N4CCNCC4)cn3)nc2n(C2CCCC2)c1=O` [PALBOCICLIB] as the compound, how does the pIC50 (UACC-62) read?
The pIC50 was < 5.40.

What about the pIC50 (ME-180) of the same compound?
The pIC50 was < 5.40.

What about the pIC50 (G-401) of the same compound?
The pIC50 was 5.72.

What about the pIC50 (DU-145) of the same compound?
Its pIC50 is 5.46.

What about the pIC50 (YKG-1) of the same compound?
The pIC50 was 5.74.

What about the pIC50 (HCT-116) of the same compound?
The pIC50 was < 5.40.

And the pIC50 (EFM-19)?
The pIC50 was < 5.40.

And the pIC50 (SCC-9)?
Its pIC50 is < 5.40.

What about the pIC50 (A253 cell line) of the same compound?
Its pIC50 is < 5.40.

What about the pIC50 (HOP-92) of the same compound?
Its pIC50 is 5.46.

What about the pIC50 (SW626) of the same compound?
The pIC50 was < 5.40.

What about the pIC50 (MEL-HO) of the same compound?
Its pIC50 is < 5.40.

And the pIC50 (KYSE-410)?
Its pIC50 is < 5.40.

What about the pIC50 (SF-295) of the same compound?
Its pIC50 is < 5.40.

And the pIC50 (GCT)?
The pIC50 was < 5.40.

And the pIC50 (ChaGo-K-1)?
Its pIC50 is < 5.40.

What about the pIC50 (HuO-3N1) of the same compound?
Its pIC50 is < 5.40.

And the pIC50 (PANC-08-13)?
Its pIC50 is < 5.40.

What about the pIC50 (MDA-MB-361) of the same compound?
The pIC50 was < 5.40.

And the pIC50 (SW780)?
The pIC50 was 5.71.

What about the pIC50 (RO82-W-1) of the same compound?
The pIC50 was 5.58.

What about the pIC50 (U2OS) of the same compound?
The pIC50 was 5.43.

And the pIC50 (NCI-H2342)?
Its pIC50 is < 5.40.

What about the pIC50 (H4) of the same compound?
Its pIC50 is 5.76.

And the pIC50 (GMS-10)?
Its pIC50 is < 5.40.

What about the pIC50 (SW1088) of the same compound?
The pIC50 was 5.46.

What about the pIC50 (NCI-H810) of the same compound?
The pIC50 was < 5.40.

What about the pIC50 (RT-112) of the same compound?
The pIC50 was 6.49.

What about the pIC50 (HCC1419) of the same compound?
The pIC50 was < 5.40.

And the pIC50 (NCI-H2052)?
Its pIC50 is < 5.40.

And the pIC50 (EFO-27)?
Its pIC50 is 5.63.

What about the pIC50 (SW756) of the same compound?
The pIC50 was < 5.40.

What about the pIC50 (NCI-H292) of the same compound?
Its pIC50 is 5.55.

What about the pIC50 (SK-MEL3) of the same compound?
Its pIC50 is < 5.40.

And the pIC50 (SW48)?
Its pIC50 is < 5.40.

What about the pIC50 (CAL-27) of the same compound?
Its pIC50 is 6.31.

And the pIC50 (NCI-H28)?
The pIC50 was < 5.40.

And the pIC50 (8505C)?
The pIC50 was < 5.40.

What about the pIC50 (HT-3) of the same compound?
Its pIC50 is < 5.40.

What about the pIC50 (BPH-1) of the same compound?
The pIC50 was < 5.40.

And the pIC50 (COR-L23)?
Its pIC50 is 5.91.
